Test results from paper PMC5218480 (PLoS ONE, 2017).

System: MV-4-11 cells
Assay: Gene expression microarray analysis (Affymetrix PrimeView) and GSEA
Format: cell-based, human
Parameters: RFU PODN (11730768_x_at) / Fold change /veh PODN (11730768_x_at) / RFU LINC00158 (11744669_a_at) / Fold change /veh LINC00158 (11744669_a_at) / RFU DUSP10 (11751237_a_at) / Fold change /veh DUSP10 (11751237_a_at) / RFU ID3 (11757404_x_at) / Fold change /veh ID3 (11757404_x_at) / RFU PLEKHG5 (11737974_s_at) / Fold change /veh PLEKHG5 (11737974_s_at) / RFU LRRC4B (11730491_at) / Fold change /veh LRRC4B (11730491_at) / RFU GIMAP4 (11747438_a_at) / Fold change /veh GIMAP4 (11747438_a_at) / RFU KRT8 (11758183_x_at) / Fold change /veh KRT8 (11758183_x_at) / RFU CNN1 (11734310_a_at) / Fold change /veh CNN1 (11734310_a_at) / RFU VPS37D (11726825_at) / Fold change /veh VPS37D (11726825_at) / RFU C10orf10 (11716522_x_at) / Fold change /veh C10orf10 (11716522_x_at) / RFU KIR2DL2 /// KIR2DL4 /// KIR2DL5A /// KIR2DL5B /// KIR2DS1 /// KIR2DS2 /// KIR2DS3 /// KIR2DS4 /// KIR3DL3 /// KIR3DL3 /// KIR3DS1 (11738374_at) / Fold change /veh KIR2DL2 /// KIR2DL4 /// KIR2DL5A /// KIR2DL5B /// KIR2DS1 /// KIR2DS2 /// KIR2DS3 /// KIR2DS4 /// KIR3DL3 /// KIR3DL3 /// KIR3DS1 (11738374_at) / RFU C1QL1 (11718748_at) / Fold change /veh C1QL1 (11718748_at) / RFU TMPRSS4 (11747572_a_at) / Fold change /veh TMPRSS4 (11747572_a_at) / RFU HAMP (11756126_x_at) / Fold change /veh HAMP (11756126_x_at) / RFU RNFT2 (11725882_a_at) / Fold change /veh RNFT2 (11725882_a_at) / RFU NR4A2 (11747474_a_at) / Fold change /veh NR4A2 (11747474_a_at) / RFU ABCC12 (11746883_a_at) / Fold change /veh ABCC12 (11746883_a_at) / RFU TMEM136 (11760407_x_at) / Fold change /veh TMEM136 (11760407_x_at) / RFU CLDN22 /// WWC2 (11732394_at) / Fold change /veh CLDN22 /// WWC2 (11732394_at) / RFU HLA-DPB1 (11760878_x_at) / Fold change /veh HLA-DPB1 (11760878_x_at) / RFU SPINT1 (11716480_a_at) / Fold change /veh SPINT1 (11716480_a_at) / RFU GAP43 (11754022_s_at) / Fold change /veh GAP43 (11754022_s_at) / RFU A4GNT (11735810_at) / Fold change /veh A4GNT (11735810_at) / RFU PRB3 (11715151_x_at) / Fold change /veh PRB3 (11715151_x_at) / RFU TUBB4B (11761932_at) / Fold change /veh TUBB4B (11761932_at) / RFU CAPN14 (11732068_a_at) / Fold change /veh CAPN14 (11732068_a_at) / RFU TMCC2 (11721928_a_at) / Fold change /veh TMCC2 (11721928_a_at) / RFU IRGQ (11745062_a_at) / Fold change /veh IRGQ (11745062_a_at) / RFU FAM174B (11720279_a_at) / Fold change /veh FAM174B (11720279_a_at) / RFU TMPRSS4 (11748680_a_at) / Fold change /veh TMPRSS4 (11748680_a_at) / RFU FAM212B (11763350_a_at) / Fold change /veh FAM212B (11763350_a_at) / RFU PLEKHG5 (11743358_a_at) / Fold change /veh PLEKHG5 (11743358_a_at) / RFU ZSCAN30 (11745921_a_at) / Fold change /veh ZSCAN30 (11745921_a_at) / RFU CMKLR1 (11741424_a_at) / Fold change /veh CMKLR1 (11741424_a_at) / RFU LOC101060620 /// MAPK8IP1 (11723275_at) / Fold change /veh LOC101060620 /// MAPK8IP1 (11723275_at) / RFU SPTSSB (11747773_x_at) / Fold change /veh SPTSSB (11747773_x_at) / RFU PRSS12 (11739890_at) / Fold change /veh PRSS12 (11739890_at) / RFU BIN1 (11741810_x_at) / Fold change /veh BIN1 (11741810_x_at) / RFU WNT11 (11732464_a_at) / Fold change /veh WNT11 (11732464_a_at) / RFU C10orf10 (11716521_a_at) / Fold change /veh C10orf10 (11716521_a_at) / RFU C5orf56 (11738089_at) / Fold change /veh C5orf56 (11738089_at) / RFU CYB561 (11721691_x_at) / Fold change /veh CYB561 (11721691_x_at) / RFU ANKRD19P (11752326_a_at) / Fold change /veh ANKRD19P (11752326_a_at) / RFU OR2T12 /// OR2T33 /// OR2T8 (11738714_s_at) / Fold change /veh OR2T12 /// OR2T33 /// OR2T8 (11738714_s_at) / RFU VCAN (11748164_a_at) / Fold change /veh VCAN (11748164_a_at) / RFU JSRP1 (11732532_at) / Fold change /veh JSRP1 (11732532_at) / RFU KRTAP10-11 (11738290_x_at) / Fold change /veh KRTAP10-11 (11738290_x_at) / RFU MYO3A (11730013_a_at) / Fold change /veh MYO3A (11730013_a_at) / RFU EBF3 (11725865_a_at) / Fold change /veh EBF3 (11725865_a_at) / RFU CAMK2N1 (11719241_x_at) / Fold change /veh CAMK2N1 (11719241_x_at) / RFU C5orf56 (11738088_a_at) / Fold change /veh C5orf56 (11738088_a_at) / RFU OLFML3 (11715873_a_at) / Fold change /veh OLFML3 (11715873_a_at) / RFU LOC100653217 /// NTM (11731650_a_at) / Fold change /veh LOC100653217 /// NTM (11731650_a_at) / RFU MAPK11 (11762145_a_at) / Fold change /veh MAPK11 (11762145_a_at) / RFU FIZ1 (11724087_x_at) / Fold change /veh FIZ1 (11724087_x_at) / RFU OASL (11726364_x_at) / Fold change /veh OASL (11726364_x_at) / RFU SOX15 (11748057_x_at) / Fold change /veh SOX15 (11748057_x_at) / RFU CD79A (11719716_a_at) / Fold change /veh CD79A (11719716_a_at) / RFU HIST1H1D (11736915_at) / Fold change /veh HIST1H1D (11736915_at) / RFU CASKIN2 (11723855_a_at) / Fold change /veh CASKIN2 (11723855_a_at) / RFU LOC730098 (11760151_x_at) / Fold change /veh LOC730098 (11760151_x_at) / RFU OR4N2 (11742367_at) / Fold change /veh OR4N2 (11742367_at) / RFU PRRT2 (11749266_a_at) / Fold change /veh PRRT2 (11749266_a_at) / RFU SNX32 (11753110_a_at) / Fold change /veh SNX32 (11753110_a_at) / RFU CDHR5 (11726645_a_at) / Fold change /veh CDHR5 (11726645_a_at) / RFU RCAN1 (11760418_a_at) / Fold change /veh RCAN1 (11760418_a_at) / RFU FAM167A (11723789_a_at) / Fold change /veh FAM167A (11723789_a_at) / RFU FAM26E (11764081_at) / Fold change /veh FAM26E (11764081_at) / RFU ISYNA1 (11749810_s_at) / Fold change /veh ISYNA1 (11749810_s_at) / RFU ACY1 (11761880_at) / Fold change /veh ACY1 (11761880_at) / RFU 11764098_at / Fold change /veh 11764098_at / RFU SAMD14 (11745864_x_at) / Fold change /veh SAMD14 (11745864_x_at) / RFU NPB (11741838_a_at) / Fold change /veh NPB (11741838_a_at) / RFU TMPRSS6 (11731388_a_at) / Fold change /veh TMPRSS6 (11731388_a_at) / RFU KRTAP10-2 (11738614_at) / Fold change /veh KRTAP10-2 (11738614_at) / RFU ARHGAP8 /// PRR5-ARHGAP8 (11727945_x_at) / Fold change /veh ARHGAP8 /// PRR5-ARHGAP8 (11727945_x_at) / RFU KRTAP5-7 /// NADSYN1 (11734609_at) / Fold change /veh KRTAP5-7 /// NADSYN1 (11734609_at) / RFU RASL12 (11751679_a_at) / Fold change /veh RASL12 (11751679_a_at) / RFU CDKN2B (11736163_a_at) / Fold change /veh CDKN2B (11736163_a_at) / RFU PRF1 (11729649_at) / Fold change /veh PRF1 (11729649_at) / RFU, ZNF638 /// ZNF638-IT1 / Fold change vs veh, ZNF638 /// ZNF638-IT1 / RFU, PANK3 / Fold change vs veh, PANK3 / RFU, SH3YL1 / Fold change vs veh, SH3YL1 / RFU, ZEB2 / Fold change vs veh, ZEB2 / RFU, NRIP1 / Fold change vs veh, NRIP1 / RFU, PTTG1IP / Fold change vs veh, PTTG1IP / RFU, CAPN2 / Fold change vs veh, CAPN2 / RFU, MED14 / Fold change vs veh, MED14 / RFU, SNORA58 / Fold change vs veh, SNORA58 / RFU, C1orf63 / Fold change vs veh, C1orf63 / RFU, LRRFIP1 / Fold change vs veh, LRRFIP1 / RFU, NDUFAF7 / Fold change vs veh, NDUFAF7 / RFU, SLC12A2 / Fold change vs veh, SLC12A2 / RFU, IBTK / Fold change vs veh, IBTK / RFU, ESF1 / Fold change vs veh, ESF1 / Fold change vs veh, TMEM50B / RFU, TAOK1 / Fold change vs veh, TAOK1 / RFU, ACBD3 / Fold change vs veh, ACBD3 / RFU, TMA16 / Fold change vs veh, TMA16 / RFU, RWDD3 / Fold change vs veh, RWDD3 / RFU, BCAT1 / Fold change vs veh, BCAT1 / RFU, EDEM3 / Fold change vs veh, EDEM3 / RFU, TMEM33 / Fold change vs veh, TMEM33 / RFU, WDR75 / Fold change vs veh, WDR75 / RFU, AHCTF1 / Fold change vs veh, AHCTF1 / RFU, TFRC / Fold change vs veh, TFRC / RFU, ZDHHC17 / Fold change vs veh, ZDHHC17 / RFU, NOM1 / Fold change vs veh, NOM1 / RFU, ARL8B / Fold change vs veh, ARL8B / RFU, ZBTB11 / Fold change vs veh, ZBTB11 / RFU, TAMM41 / Fold change vs veh, TAMM41 / RFU, KIAA1704 /// LOC100996395 / Fold change vs veh, KIAA1704 /// LOC100996395 / RFU, ING1 / Fold change vs veh, ING1 / RFU, TRMT61B / Fold change vs veh, TRMT61B / RFU, FUBP3 / Fold change vs veh, FUBP3 / RFU, TP53 / Fold change vs veh, TP53 / RFU, TNKS2 / Fold change vs veh, TNKS2 / RFU, ZFP14 / Fold change vs veh, ZFP14 / RFU, ACTR2 / Fold change vs veh, ACTR2 / RFU, PPP3R1 / Fold change vs veh, PPP3R1 / RFU, PIK3R1 / Fold change vs veh, PIK3R1 / RFU, HNRNPA1 / Fold change vs veh, HNRNPA1 / RFU, RNF170 / Fold change vs veh, RNF170 / RFU, ZNF28 / Fold change vs veh, ZNF28 / RFU, RNGTT / Fold change vs veh, RNGTT / RFU, OGT / Fold change vs veh, OGT / RFU, BRD1 / Fold change vs veh, BRD1 / RFU, MARS / Fold change vs veh, MARS / RFU, ZNF655 / Fold change vs veh, ZNF655 / RFU, FAHD1 / Fold change vs veh, FAHD1 / RFU, BDP1 / Fold change vs veh, BDP1 / RFU, LRRCC1 / Fold change vs veh, LRRCC1 / RFU, ARID1A / Fold change vs veh, ARID1A / RFU, ZNF146 / Fold change vs veh, ZNF146 / RFU, ZNF330 / Fold change vs veh, ZNF330 / RFU, GPN3 / Fold change vs veh, GPN3 / RFU, C9orf123 / Fold change vs veh, C9orf123 / RFU, N4BP2L2 / Fold change vs veh, N4BP2L2 / RFU, ARFIP1 / Fold change vs veh, ARFIP1 / RFU, FAM179B / Fold change vs veh, FAM179B / RFU, BCL10 / Fold change vs veh, BCL10 / RFU, UHRF1BP1L / Fold change vs veh, UHRF1BP1L / RFU, BET1 / Fold change vs veh, BET1 / RFU, CNOT2 / Fold change vs veh, CNOT2 / RFU, ZNF268 / Fold change vs veh, ZNF268 / Fold change vs veh, ZNF507 / RFU, DGCR2 / Fold change vs veh, DGCR2 / RFU, WDSUB1 / Fold change vs veh, WDSUB1 / Fold change vs veh, HSP90B1 /// MIR3652 / RFU, ADSS / Fold change vs veh, ADSS / RFU, GK / Fold change vs veh, GK / RFU, ZNF148 / Fold change vs veh, ZNF148 / RFU, TAF9 / Fold change vs veh, TAF9 / RFU, SLC1A5 / Fold change vs veh, SLC1A5 / RFU, SLMO2 / Fold change vs veh, SLMO2 / RFU, ABCC4 / Fold change vs veh, ABCC4 / RFU, LOC101060439 /// RAP1B / Fold change vs veh, LOC101060439 /// RAP1B / RFU, RFX7 / Fold change vs veh, RFX7 / RFU, GTPBP10 / Fold change vs veh, GTPBP10 / RFU, CNEP1R1 / Fold change vs veh, CNEP1R1 / RFU, BIVM-ERCC5 /// ERCC5 / Fold change vs veh, BIVM-ERCC5 /// ERCC5 / RFU, ILF3 / Fold change vs veh, ILF3 / RFU 11762660_at / Fold change /veh 11762660_at / RFU VCAN (11757783_s_at) / Fold change /veh VCAN (11757783_s_at) / RFU DDX43 (11728927_at) / Fold change /veh DDX43 (11728927_at) / RFU KRT8 (11758188_x_at) / Fold change /veh KRT8 (11758188_x_at) / RFU NKD1 (11759106_at) / Fold change /veh NKD1 (11759106_at) / RFU SRD5A1 (11742802_a_at) / Fold change /veh SRD5A1 (11742802_a_at) / RFU TPSAB1 /// TPSB2 (11721975_s_at) / Fold change /veh TPSAB1 /// TPSB2 (11721975_s_at) / RFU GSTM3 (11746129_a_at) / Fold change /veh GSTM3 (11746129_a_at) / RFU IL23R (11737362_x_at) / Fold change /veh IL23R (11737362_x_at) / RFU TMEM51 (11727254_a_at) / Fold change /veh TMEM51 (11727254_a_at) / RFU PIWIL2 (11732686_x_at) / Fold change /veh PIWIL2 (11732686_x_at) / RFU ORM1 (11744905_x_at) / Fold change /veh ORM1 (11744905_x_at) / RFU CCDC152 (11743942_at) / Fold change /veh CCDC152 (11743942_at) / RFU ECM1 (11717891_a_at) / Fold change /veh ECM1 (11717891_a_at) / RFU IL23R (11748794_a_at) / Fold change /veh IL23R (11748794_a_at) / RFU TNFAIP8L3 (11732012_x_at) / Fold change /veh TNFAIP8L3 (11732012_x_at) / RFU MBOAT4 (11741988_at) / Fold change /veh MBOAT4 (11741988_at) / RFU 11764193_at / Fold change /veh 11764193_at / RFU TMEM53 (11763286_at) / Fold change /veh TMEM53 (11763286_at) / RFU MAGEB2 (11727129_at) / Fold change /veh MAGEB2 (11727129_at) / RFU TMEM200A (11744735_a_at) / Fold change /veh TMEM200A (11744735_a_at) / RFU CCDC152 (11751479_a_at) / Fold change /veh CCDC152 (11751479_a_at) / RFU FAM211A (11726209_a_at) / Fold change /veh FAM211A (11726209_a_at) / RFU RGS16 (11746705_a_at) / Fold change /veh RGS16 (11746705_a_at) / RFU VCAN (11755009_s_at) / Fold change /veh VCAN (11755009_s_at) / RFU RHOB (11743442_s_at) / Fold change /veh RHOB (11743442_s_at) / RFU RGS16 (11720943_a_at) / Fold change /veh RGS16 (11720943_a_at) / RFU RGS16 (11720944_at) / Fold change /veh RGS16 (11720944_at) / RFU, VPS4B / Fold change vs veh, VPS4B / RFU, CREB1 / Fold change vs veh, CREB1 / RFU, DNAJC13 / Fold change vs veh, DNAJC13 / RFU, GNAQ / Fold change vs veh, GNAQ / RFU, CDK5R1 / Fold change vs veh, CDK5R1 / RFU, ZRANB3 / Fold change vs veh, ZRANB3 / RFU, CUL4A / Fold change vs veh, CUL4A / RFU, CCNY / Fold change vs veh, CCNY / RFU, UFL1 / Fold change vs veh, UFL1 / RFU, COG3 / Fold change vs veh, COG3 / RFU, DIAPH2 / Fold change vs veh, DIAPH2 / RFU, SKA2 / Fold change vs veh, SKA2 / RFU, AFF3 / Fold change vs veh, AFF3 / RFU, LMF1 / Fold change vs veh, LMF1 / RFU, IPO11 / Fold change vs veh, IPO11 / RFU, DFFB / Fold change vs veh, DFFB / RFU, FOXP1 / Fold change vs veh, FOXP1 / RFU, CARD8 / Fold change vs veh, CARD8 / RFU, STRN3 / Fold change vs veh, STRN3 / RFU, ADK / Fold change vs veh, ADK / RFU, RASSF2 / Fold change vs veh, RASSF2 / RFU, WIPF1 / Fold change vs veh, WIPF1 / RFU, LARP1B / Fold change vs veh, LARP1B / RFU, RASA1 / Fold change vs veh, RASA1 / RFU, RB1 / Fold change vs veh, RB1 / RFU, PPFIA1 / Fold change vs veh, PPFIA1 / RFU, MAT2A / Fold change vs veh, MAT2A / RFU, CCT5 / Fold change vs veh, CCT5 / RFU, WDR92 / Fold change vs veh, WDR92 / RFU, CUX1 / Fold change vs veh, CUX1 / RFU, TTC7A / Fold change vs veh, TTC7A / RFU, TMEM135 / Fold change vs veh, TMEM135 / RFU, DEPTOR / Fold change vs veh, DEPTOR / RFU, CPM / Fold change vs veh, CPM / RFU, DNAJB6 / Fold change vs veh, DNAJB6 / RFU, CACNA2D3 / Fold change vs veh, CACNA2D3 / RFU, DTX4 / Fold change vs veh, DTX4 / RFU, TFCP2 / Fold change vs veh, TFCP2 / RFU, GMCL1 /// GMCL1P1 / Fold change vs veh, GMCL1 /// GMCL1P1 / RFU, AEBP2 / Fold change vs veh, AEBP2 / RFU, SNHG1 /// SNORD22 /// SNORD25 /// SNORD26 /// SNORD27 /// SNORD28 /// SNORD29 /// SNORD31 / Fold change vs veh, SNHG1 /// SNORD22 /// SNORD25 /// SNORD26 /// SNORD27 /// SNORD28 /// SNORD29 /// SNORD31 / Fold change (Aza/veh), C12orf56 (ProbeSet 11735607_a_at) / Fold change (ACY-1035/veh), C12orf56 (ProbeSet 11735607_a_at) / Fold change (Aza/veh), FGFR1OP (ProbeSet 11751329_s_at) / Fold change (ACY-1035/veh), FGFR1OP (ProbeSet 11751329_s_at) / Fold change (Aza/veh), VPS36 (ProbeSet 11739960_a_at) / Fold change (ACY-1035/veh), VPS36 (ProbeSet 11739960_a_at) / RFU SYPL1 (11715823_x_at) / Fold change /veh SYPL1 (11715823_x_at) / RFU IGFBP7 (11715501_s_at) / Fold change /veh IGFBP7 (11715501_s_at) / RFU REEP3 (11722064_at) / Fold change /veh REEP3 (11722064_at) / RFU IGLL1 (11728026_x_at) / Fold change /veh IGLL1 (11728026_x_at): dose or concentration left out as unconfirmed
Details: ProbeSet 11725141_a_at; LIST B

Nc1ncn([C@@H]2O[C@H](CO)[C@@H](O)[C@H]2O)c(=O)n1 [azacitidine]
Fold change vs veh, FUBP3: 0.84
